In US10183949B2, “Pyrimidinone derivative having autotaxin-inhibitory activity” (The University of Tokyo, priority 2014, dated 2019):
pIC50: −log10 of the molar value.

biological target: T1, Human autotaxin enzyme (Homo sapiens, UniProt Q13822); experiment: Evaluation of autotaxin inhibitor, 18:0 Lyso PC / choline assay (Test Example 2); format: biochemical; conditions: autotaxin inhibition, IC50 class; read-out: Inhibitor activity
T1 construct: purchased R&D System
Summary of the method: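 Human autotaxin in 100 mM Tris-HCl pH 7.5, 150 mM NaCl, 5 mM MgCl2, 0.05% Triton X-100 reacted with 18:0 Lyso PC (200 μM stock) and test compound 2 h at room temperature. Released choline quantified via choline oxidase/peroxidase resorufin fluorescence (ex 531/em 598 nm, 20 min); inhibition vs no-compound and no-enzyme controls, concentration-response curve.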

pIC50	SMILES
6.00 to 7.00	N#CC1(NC(=O)Cn2c(OCCC(F)(F)F)nc(-c3ccc(Cl)cc3)cc2=O)CC1 [Compound I-0242]
≤ 6.00	O=C(O)Cn1c(CCCC(F)(F)F)nc(-c2ccc(C(F)(F)F)cc2)cc1=O [Compound I-0255]
7.00 to 8.00	CSc1nc(-c2ccc(Cl)cc2NC(C)=O)cc(=O)n1CC(=O)NC(C)(C)C [Compound I-0251]

same assay, conditions: human autotaxin enzyme, 18:0 Lyso PC substrate, choline assay, room temperature 2 hours; read-out: Inhibitor activity (IC50)

pIC50	SMILES
≤ 6.00	CCCCCc1nc(-c2ccc(Cl)cc2)cc(=O)n1CC(=O)NC1(C(=O)O)CCOCC1 [Compound I-0058]
7.00 to 8.00	CC(C)(C)C(=O)Nc1cc(Cl)ccc1-c1cc(=O)n(Cc2cccc(C(=O)N3CCC(C(N)=O)CC3)c2)cn1 [Compound I-0497]
7.00 to 8.00	O=C(O)c1cncc(Cn2c(CCCC(F)(F)F)nc(-c3ccc(Cl)cc3)cc2=O)c1 [Compound I-0288]
6.00 to 7.00	CC(=O)Nc1cc(Cl)ccc1-c1cc(=O)n(CC(=O)N2CCN(CCC(=O)c3ccc4[nH]c(=O)oc4c3)CC2)cn1 [Compound I-0499]
6.00 to 7.00	CN(CC(O)CO)C(=O)Cn1c(CCCC(F)(F)F)nc(-c2ccc(Cl)cc2)cc1=O (centres unmarked) [Compound I-0132]
6.00 to 7.00	O=C(NCCCO)c1cccc(Cn2c(CCCC(F)(F)F)nc(-c3ccc(Cl)cc3)cc2=O)c1 [Compound I-0163]
7.00 to 8.00	CC(C)(C)NC(=O)Cn1cnc(-c2ccc(Cl)cc2NC(=O)C(C)(C)C)cc1=O [Compound I-0407]
7.00 to 8.00	Cc1nc(-c2ccc(Cl)cc2NC(=O)C2CC2)cc(=O)n1CC(=O)NC1(C(F)(F)F)CC1 [Compound I-0461]
7.00 to 8.00	COC(=O)Nc1cc(Cl)ccc1-c1cc(=O)n(CC(=O)N(C(C)C)C(C)C)c(C)n1 [Compound I-0276]
6.00 to 7.00	CCCCCNc1nc(-c2ccc(C(F)(F)F)cc2)cc(=O)n1Cc1ccc(C(=O)NCC(=O)O)cc1 [Compound I-0018]
> 8.00	N#CC1(NC(=O)Cn2c(CCCC(F)(F)F)nc(C3=CCC(C(F)(F)F)CC3)cc2=O)CC1 (centres unmarked) [Compound I-0232]
7.00 to 8.00	Cc1nc(-c2ccc(Cl)cc2NC(=O)C(C)(C)C)cc(=O)n1CC(=O)NC(C)(C)C [Compound I-0273]
7.00 to 8.00	COC(=O)Nc1cc(Cl)ccc1-c1cc(=O)n(CC(=O)N(C)C(C)(C)CO)c(C)n1 [Compound I-0277]
6.00 to 7.00	O=C(Cn1c(CCCC(F)(F)F)nc(-c2ccc(Cl)cc2)cc1=O)NCc1ccnc(O)c1 [Compound I-0142]
7.00 to 8.00	COC(=O)Nc1cc(Cl)ccc1-c1cc(=O)n(CC(=O)NCC2CCC(=O)N2)c(C)n1 (centres unmarked) [Compound I-0437]
6.00 to 7.00	Cc1nc(-c2ccc(F)cc2NC(=O)C(C)(C)C)cc(=O)n1CC(=O)NCC1(CO)COC1 [Compound I-0298]
6.00 to 7.00	CC(C)(C)OC(=O)Cn1c(CCC(F)(F)F)nc(-c2ccc(Cl)cc2NC(=O)C(C)(C)C)cc1=O [Compound I-0341]
6.00 to 7.00	CCCCCc1nc(-c2ccc(Cl)cc2)cc(=O)n1CC(=O)NCCCc1ccccc1 [Compound I-0102]
7.00 to 8.00	CCCCCc1nc(-c2ccc(Cl)cc2)cc(=O)n1CC(=O)NC(C)CC#N (centres unmarked) [Compound I-0079]
6.00 to 7.00	N#CCCN1CCN(C(=O)Cn2c(CCCC(F)(F)F)nc(-c3ccc(Cl)cc3)cc2=O)CC1 [Compound I-0136]
≤ 6.00	CC1(O)CN(C(=O)Cn2c(CCCC(F)(F)F)nc(-c3ccc(Cl)cc3CO)cc2=O)C1 [Compound I-0315]
7.00 to 8.00	CC(C)(C)C(=O)Nc1cc(Cl)ccc1-c1cc(=O)n(CC(=O)N2CCC(C(N)=O)CC2)cn1 [Compound I-0468]
≤ 6.00	N#CC1(NC(=O)Cn2c(CCC(F)(F)F)nc(-c3ccc(Cl)cc3)cc2=O)CC1 [Compound I-0207]

pIC50	SMILES
6.00 to 7.00	O=C(NCC(O)CO)c1cccc(Cn2c(CCCC(F)(F)F)nc(-c3ccc(Cl)cc3)cc2=O)c1 (centres unmarked) [Compound I-0173]
7.00 to 8.00	CCCCCc1nc(-c2ccc(Cl)cc2)cc(=O)n1CC(=O)N1CCC(c2nc(=O)o[nH]2)CC1 [Compound I-0382]
≤ 6.00	CCCCCNc1nc(-c2ccc(C(F)(F)F)cc2)cc(=O)n1Cc1ccc(C(=O)NCC(N)=O)cc1 [Compound I-0019]
7.00 to 8.00	COC(=O)Nc1cc(C#N)ccc1-c1cc(=O)n(CC(=O)NCC2CNC(=O)C2)c(C)n1 (centres unmarked) [Compound I-0428]
7.00 to 8.00	COC(=O)Nc1cc(C#N)ccc1-c1cc(=O)n(CC(=O)N(C)C(C)(C)C)c(C)n1 [Compound I-0374]
≤ 6.00	CC(C)(C)C(=O)Nc1cc(Cl)ccc1-c1cc(=O)n(Cc2cccc(C(=O)Nc3ccnc(O)c3)c2)cn1 [Compound I-0493]
7.00 to 8.00	O=C(Cn1c(CCCC(F)(F)F)nc(-c2ccc(Cl)cc2)cc1=O)N1CCN(CCO)CC1 [Compound I-0131]
7.00 to 8.00	CCCCCc1nc(-c2ccc(Cl)cc2)cc(=O)n1CC(=O)NC(C)C(=O)O (centres unmarked) [Compound I-0039]
7.00 to 8.00	Cc1nc(-c2ccc(Cl)cc2NC(=O)C(C)(C)C)cc(=O)n1CC(=O)NC1(C(=N)NO)CC1 [Compound I-0380]
≤ 6.00	CCCCCn1c(-c2ccc(Cl)cc2)cc(=O)n(C)c1=N [Compound I-0001]
≤ 6.00	N#CCCCn1c(-c2ccc(Cl)cc2)cc(=O)n(CC(=O)NC(Cc2ccccc2)C(=O)O)c1=O (centres unmarked) [Compound I-0115]
6.00 to 7.00	CCCCCc1nc(-c2ccc(Cl)cc2)[nH]c(=O)c1Cc1cccc(C(=O)O)c1 [Compound I-0003]
6.00 to 7.00	CNC(=O)c1cccc(Cn2c(CCCC(F)(F)F)nc(-c3ccc(Cl)cc3)cc2=O)c1 [Compound I-0180]
7.00 to 8.00	Cc1nc(-c2ccc(Cl)cc2NC(=O)C2CC2)cc(=O)n1CC(=O)NCC1CNC(=O)C1 (centres unmarked) [Compound I-0451]
7.00 to 8.00	N#CC1(NC(=O)Cn2c(CCCC(F)(F)F)nc(-c3ccc(C(F)(F)F)nc3)cc2=O)CC1 [Compound I-0233]
> 8.00	Cc1nc(-c2ccc(Cl)cc2NC(=O)C(C)(C)C)cc(=O)n1Cc1cccc(C(=O)O)c1 [Compound I-0290]
> 8.00	CCCCCc1nc(-c2ccc(Cl)cc2)cc(=O)n1CC(=O)NC1CCC(C(=O)O)CC1 (centres unmarked) [Compound I-0063]
6.00 to 7.00	CCCCCc1nc(-c2ccc(Cl)cc2)cc(=O)n1CC(=O)NCc1ccccc1 [Compound I-0034]
6.00 to 7.00	CCCCCc1nc(-c2ccc(Cl)cc2)cc(=O)n1CC(=O)NC1CCOCC1 [Compound I-0086]
6.00 to 7.00	CCCCCc1nc(-c2ccc(Cl)cc2)cc(=O)n1CC(=O)N[C@@H]1CCN(C(C)=O)C1 [Compound I-0097]
7.00 to 8.00	Cc1nc(-c2ccc(Cl)cc2NC(=O)C2CC2)cc(=O)n1CC(=O)NC1(c2ccc(F)cc2)COC1 [Compound I-0484]
7.00 to 8.00	CC(C)(C)C(=O)Nc1cc(Cl)ccc1-c1cc(=O)n(Cc2cccc(C(=O)O)c2)cn1 [Compound I-0427]
> 8.00	CCCCCc1nc(-c2ccc(Cl)cc2)cc(=O)n1CC(=O)NC1(C(=O)O)CCC1 [Compound I-0073]

pIC50	SMILES
7.00 to 8.00	O=C(NCC1(CO)COC1)c1cccc(Cn2c(CCCC(F)(F)F)nc(-c3ccc(Cl)cc3)cc2=O)n1 [Compound I-0358]
7.00 to 8.00	CN1CNC(=O)C12CCN(C(=O)Cn1c(CCCC(F)(F)F)nc(-c3ccc(C(F)(F)F)cc3)cc1=O)CC2 [Compound I-0361]
> 8.00	CCCCCc1nc(-c2ccc(Cl)cc2)cc(=O)n1CC(=O)NCC(C)(C)C(=O)O [Compound I-0070]
7.00 to 8.00	COC(=O)Nc1cc(Cl)ccc1-c1cc(=O)n(CC(=O)NC2(C(=N)NO)CC2)c(C)n1 [Compound I-0440]
6.00 to 7.00	O=C(Cn1c(CCCC(F)(F)F)nc(-c2ccc(C(F)(F)F)cc2)cc1=O)N1CCC(O)(Cc2ccccc2)CC1 [Compound I-0369]
7.00 to 8.00	CN(CC#N)C(=O)Cn1c(CCCC(F)(F)F)nc(-c2ccc(C(F)(F)F)cc2)cc1=O [Compound I-0297]
≤ 6.00	CCCCCc1nc(-c2ccc(Cl)cc2)cc(=O)n1Cc1ccccc1 [Compound I-0007]
> 8.00	COC(=O)Nc1cc(Cl)ccc1-c1cc(=O)n(CC(=O)OC(C)(C)C#N)c(C)n1 [Compound I-0375]
≤ 6.00	CCCCCc1nc(-c2ccc(Cl)cc2)cc(=O)n1CC(=O)Nc1ncc(C#N)s1 [Compound I-0083]
≤ 6.00	CCCCCc1nc(-c2ccc(Cl)cc2)cc(=O)n1CC(=O)N1CCC(C(=O)O)C1 (centres unmarked) [Compound I-0066]
7.00 to 8.00	CC(C)(C)C(=O)Nc1cc(Cl)ccc1-c1cc(=O)n(Cc2cccc(C(=O)N3CCC4(COC4)C3)c2)cn1 [Compound I-0495]
7.00 to 8.00	O=C1CCC(CNC(=O)c2cccc(Cn3c(CCCC(F)(F)F)nc(-c4ccc(Cl)cc4)cc3=O)c2)CN1 (centres unmarked) [Compound I-0196]
7.00 to 8.00	CC(C)(C)C(=O)Nc1cc(Cl)ccc1-c1cc(=O)n(CC(=O)N2CCC(C(=O)O)CC2)c(CCC(F)(F)F)n1 [Compound I-0367]
6.00 to 7.00	CCCCCNc1nc(-c2ccc(C(F)(F)F)cc2)cc(=O)n1Cc1ccc(C(=O)O)cc1 [Compound I-0010]
7.00 to 8.00	O=C(O)c1cc(Cn2c(CCCC(F)(F)F)nc(-c3ccc(Cl)cc3)cc2=O)cs1 [Compound I-0292]
7.00 to 8.00	Cc1nc(-c2ccc(Cl)cc2NC(=O)C2CC2)cc(=O)n1CC(=O)NC1(C)COC1 [Compound I-0419]
7.00 to 8.00	COC(=O)Nc1cc(Cl)ccc1-c1cc(=O)n(CC(=O)N2CCC(O)CC2)c(C)n1 [Compound I-0425]
6.00 to 7.00	Cc1nc(-c2ccc(F)cc2NC(=O)C2CC2)cc(=O)n1CC(=O)NCC1(CO)COC1 [Compound I-0281]
6.00 to 7.00	O=C(c1cccc(Cn2c(CCCC(F)(F)F)nc(-c3ccc(Cl)cc3)cc2=O)c1)N(CCO)Cc1ccccc1 [Compound I-0198]
7.00 to 8.00	CN(C(=O)Cn1c(CCCC(F)(F)F)nc(-c2ccc(C(F)(F)F)cc2)cc1=O)C1(C)COC1 [Compound I-0332]
6.00 to 7.00	CCOCCc1nc(-c2ccc(Cl)cc2)cc(=O)n1CC(=O)NCC1(CO)CC1 [Compound I-0223]

SMILES	pIC50
Cc1nc(-c2ccc(C#N)cc2NC(=O)C(C)(C)C)cc(=O)n1CC(=O)NC1(c2nc(=O)o[nH]2)CC1 [Compound I-0385]	7.00 to 8.00
